Experimental findings from US9265810B2, “Pharmaceutical composition and methods for modulating immune system, preventing, pretreating and/or treating cancers” (Hong Kong Baptist University, priority 2013, dated 2016) are described below.

The subject of this test is 4T1 murine mammary cancer cells.

Procedure: In this example, the average body weight of mice is 20 g; and the doses of Taxol and RAP are 20 mg/kg, and 40 mg/kg, respectively.

For `CC(=O)O[C@H]1C(=O)[C@@]2(C)[C@H]([C@H](OC(=O)c3ccccc3)[C@]3(O)C[C@H](OC(=O)[C@H](O)[C@@H](NC(=O)c4ccccc4)c4ccccc4)C(C)=C1C3(C)C)[C@]1(OC(C)=O)CO[C@@H]1C[C@@H]2O` [Taxol, paclitaxel], the “survival rate at Day 55” value (Day 55) came out at 30%. Further, under “RAP 40 mg/kg/day gavage since day 0, Taxol 20 mg/kg/week i.p. since day 17, tumor cells at day 7”, the “anticancer effect compared to control group” value was “significant anticancer effect”. In addition, the “death at day 50” value (day 50, when all the mice of Control group died) is listed as “no death occurred”.
